Source: US20250170112A1, “ADENOSINE LIGANDS FOR THE TREATMENT OF NEUROLOGICAL DISORDERS” (Lucy Therapeutics, Inc., priority 2022, published 2025)

Columns and labels:
human A2B = biological target: T1, human A2B (Homo sapiens, UniProt P29275); test: cAMP HTRF assay for Gs coupled receptor, agonist test; type: cell-based; conditions: agonist activity; HEK293 cells expressing recombinant human A2B; read-out: A2BAR EC50
T1 construct: expressed in transfected cells; host or cells: HEK293
T1 sequence (P29275 1-332): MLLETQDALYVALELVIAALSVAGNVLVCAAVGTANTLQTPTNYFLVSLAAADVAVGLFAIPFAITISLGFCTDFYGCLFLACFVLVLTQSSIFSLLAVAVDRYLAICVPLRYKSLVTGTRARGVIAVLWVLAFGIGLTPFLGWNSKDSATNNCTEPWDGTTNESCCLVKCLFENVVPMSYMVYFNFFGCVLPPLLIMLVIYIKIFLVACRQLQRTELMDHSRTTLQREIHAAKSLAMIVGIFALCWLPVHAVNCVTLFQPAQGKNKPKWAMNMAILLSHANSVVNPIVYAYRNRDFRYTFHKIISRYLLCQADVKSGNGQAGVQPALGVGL
How it was run: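 Recombinant cells were incubated 30 min at room temperature with increasing agonist concentrations. Lysis buffer with cAMP-d2 and anti-cAMP cryptate was added, with 1 h at room temperature before the HTRF fluorescence ratio was read. Reference compounds were run in parallel.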

[1] = biological target: T2, human Adenosine A1 receptor (Homo sapiens, UniProt P30542); test: GTPγS scintillation proximity assay, agonist testing; type: biochemical; conditions: agonist activity; membrane extracts of CHO-K1 cells expressing recombinant human A1; read-out: A1AR EC50
T2 construct: host or cells: CHO-K1
T2 sequence (P30542 1-326): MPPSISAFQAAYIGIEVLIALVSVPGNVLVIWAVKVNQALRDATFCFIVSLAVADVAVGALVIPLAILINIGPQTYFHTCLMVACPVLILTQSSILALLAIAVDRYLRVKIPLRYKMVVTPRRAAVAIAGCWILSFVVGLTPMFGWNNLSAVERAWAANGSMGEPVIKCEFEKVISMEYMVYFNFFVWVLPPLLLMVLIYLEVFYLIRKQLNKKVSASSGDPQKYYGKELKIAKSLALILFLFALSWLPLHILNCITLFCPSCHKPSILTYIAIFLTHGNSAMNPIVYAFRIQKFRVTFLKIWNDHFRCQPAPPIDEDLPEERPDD
How it was run: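 Agonist-stimulated [35S]GTPγS binding to membranes of CHO-K1 cells expressing recombinant human A1 receptor, in 20 mM HEPES pH 7.4, 100 mM NaCl, 10 μg/mL saponin, with receptor-optimized MgCl2 and GDP. GTPγ[35S] 0.1 nM final with WGA SPA beads; 1 h at room temperature, then scintillation counting.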

EC50 (human A2B) [µM] | EC50 [1] [µM] | Compound
> 10 | 0.265 | N#Cc1c(N)nc(OC[C@H]2CCOC2)c(C#N)c1-c1ccc(OC2COC2)cc1 [Compound 290]
9.89 | 0.208 | N#Cc1c(N)nc(SCC2OCCCO2)c(C#N)c1-c1ccc(OC2COC2)cc1 [Compound 291]
> 10 | 0.093 | N#Cc1c(SCC2COC2)nc(N2CCCC2)c(C#N)c1-c1ccc(OC2COC2)cc1 [Compound 292]
> 10 | 0.0732 | N#Cc1c(SCC2COC2)nc(N2CCC2)c(C#N)c1-c1ccc(OC2COC2)cc1 [Compound 293]
> 10 | 0.0252 | COc1nc(SCC2COC2)c(C#N)c(-c2ccc(OC3COC3)cc2)c1C#N [Compound 294, 2-Methoxy-6-((oxetan-3-ylmethyl)thio)-4-(4-(oxetan-3-yloxy)phenyl)pyridine-3,5-dicarbonitrile]
> 10 | 1.1 | N#Cc1c(N)nc(SCC2COCOC2)c(C#N)c1-c1ccc(OC2COC2)cc1 [Compound 297]
> 10 | 0.229 | N#Cc1c(N)nc(OCC2CCOCC2)c(C#N)c1-c1ccc(OC2COC2)cc1 [Compound 298]
> 10 | > 10 | N#Cc1c(N)nc(OCC2CCCCO2)c(C#N)c1-c1ccc(OC2COC2)cc1 (stereo not shown) [Compound 299]
> 10 | 1.15 | N#Cc1c(N)nc(OCC2CCCOC2)c(C#N)c1-c1ccc(OC2COC2)cc1 (stereo not shown) [Compound 300, 2-Amino-4-(4-(oxetan-3-yloxy)phenyl)-6-((tetrahydro-2H-pyran-3-yl)methoxy)pyridine-3,5-dicarbonitrile]
> 10 | 0.228 | N#Cc1c(N)nc(SCC2COCCO2)c(C#N)c1-c1ccc(OC2COC2)cc1 (stereo not shown) [Compound 301]
0.894 | 0.0648 | Cn1ccc2c(CSc3nc(N)c(C#N)c(-c4ccc(OC5COC5)cc4)c3C#N)cccc21 [Compound 302]
> 10 | 0.0785 | N#Cc1c(N)nc(SCC2COC2)c(C#N)c1-c1ccc(O[C@H]2C[C@H](O)C2)cc1 [Compound 303]
> 10 | 0.167 | N#Cc1c(N)nc(SCC2OCCO2)c(C#N)c1-c1ccc(OC2COC2)cc1 [Compound 304]
1.12 | 0.14 | N#Cc1c(N)nc(SCC2CCOCC2)c(C#N)c1-c1ccc(OC2COC2)cc1 [Compound 305]
> 10 | 0.353 | COCC(F)(F)Oc1ccc(-c2c(C#N)c(N)nc(SCc3cccnc3)c2C#N)cc1 [Compound 306]
> 10 | > 10 | N#Cc1c(N)nc(OCCC2COC2)c(C#N)c1-c1ccc(OC2COC2)cc1 [Compound 307]
5.57 | > 10 | N#Cc1c(N)nc(SCC2COC2)c(C#N)c1-c1ccc(OC2CCCOC2)cc1 (stereo not shown) [Compound 308]
0.000962 | 0.00648 | N#Cc1c(N)nc(SCc2cccnc2)c(C#N)c1-c1ccc(OC(F)(F)CO)cc1 [Compound 309]

EC50 (human A2B) [µM] | EC50 [1] [µM] | Compound
> 10 | > 10 | COCC(F)(F)Oc1ccc(-c2c(C#N)c(N)nc(SCC3COC3)c2C#N)cc1 [Compound 310]
> 10 | 0.00718 | N#Cc1c(N)nc(SCC2COC2)c(C#N)c1-c1ccc(OC(F)(F)CO)cc1 [Compound 311, 2-Amino-4-[4-(1,1-difluoro-2-hydroxy-ethoxy)phenyl]-6-(oxetan-3-ylmethylsulfanyl)pyridine-3,5-dicarbonitrile]
> 10 | 0.204 | N#Cc1c(N)nc(OCC2COC2)c(C#N)c1-c1ccc(OC2COC2)cc1 [Compound 312, 2-Amino-6-(oxetan-3-ylmethoxy)-4-(4-(oxetan-3-yloxy)phenyl)pyridine-3,5-dicarbonitrile]
> 10 | 0.055 | N#Cc1c(N)nc(SCC2(O)COC2)c(C#N)c1-c1ccc(OCCO)cc1 [Compound 313]
> 10 | 0.00516 | CNc1nc(SCC2COC2)c(C#N)c(-c2ccc(OC3COC3)cc2)c1C#N [Compound 314]
> 10 | 0.0818 | N#Cc1c(N)nc(SCC2(O)COC2)c(C#N)c1-c1ccc(OC2COC2)cc1 [Compound 315]
0.305 | 0.0108 | CC(O)COc1ccc(-c2c(C#N)c(N)nc(SCC3COC3)c2C#N)cc1 (stereo not shown) [Compound 316]
> 10 | 0.0887 | CC(C)(O)COc1ccc(-c2c(C#N)c(N)nc(SCC3COC3)c2C#N)cc1 [Compound 317]
> 10 | 0.0321 | CN(C)c1nc(SCC2COC2)c(C#N)c(-c2ccc(OC3COC3)cc2)c1C#N [Compound 318]
0.401 | 0.00153 | N#Cc1c(N)nc(SCC2COC2)c(C#N)c1-c1ccc(OCCO)cc1 [Compound 319]
> 10 | 0.23 | N#Cc1c(N)nc(SCC2(F)COC2)c(C#N)c1-c1ccc(OCCO)cc1 [Compound 320]
> 10 | > 10 | COC1CC(Oc2ccc(-c3c(C#N)c(N)nc(SCC4CCOC4)c3C#N)cc2)C1 (stereo not shown) [Compound 321]
> 10 | 0.227 | COC1CC(Oc2ccc(-c3c(C#N)c(N)nc(SCC4COC4)c3C#N)cc2)C1 (stereo not shown) [Compound 323]
> 10 | 0.0213 | N#Cc1c(N)nc(SCC2CCOC2)c(C#N)c1-c1ccc(OC2CC(O)C2)cc1 (stereo not shown) [Compound 324]
> 10 | > 10 | N#Cc1c(N)nc(SCCC(F)(F)F)c(C#N)c1-c1ccc(OC2CCCOC2)cc1 (stereo not shown) [Compound 325]
> 10 | > 10 | N#Cc1c(N)nc(SCC2CCOC2)c(C#N)c1-c1ccc(OC2CCCOC2)cc1 (stereo not shown) [Compound 326]
> 10 | 0.0221 | CC1(CSc2nc(N)c(C#N)c(-c3ccc(OC4COC4)cc3)c2C#N)COC1 [Compound 327]
> 10 | > 10 | N#Cc1c(N)nc(SCCC(F)(F)F)c(C#N)c1-c1ccc(O[C@H]2C[C@H](O)C2)cc1 [Compound 328]

Compound | EC50 (human A2B) [µM] | EC50 [1] [µM]
N#Cc1c(N)nc(SCc2cccnc2)c(C#N)c1-c1ccc(O[C@H]2C[C@H](O)C2)cc1 [Compound 295, 2-Amino-4-(4-((1r,3r)-3-hydroxycyclobutoxy)phenyl)-6-((pyridin-3-ylmethyl)thio)pyridine-3,5-dicarbonitrile] | 0.00979 | 0.0016
N#Cc1c(N)nc(SCc2cccnc2)c(C#N)c1-c1ccc(O[C@H]2C[C@@H](O)C2)cc1 [Compound 296, 2-Amino-4-(4-((1s,3s)-3-hydroxycyclobutoxy)phenyl)-6-((pyridin-3-ylmethyl)thio)pyridine-3,5-dicarbonitrile] | 0.00247 | 0.0206
